Experimental data published in patent publication US20250161273A1, “PHARMACEUTICAL COMPOSITION COMPRISING DIPHENYLDIAZOLE DERIVATIVES AND METHODS OF USE” (MODAG GMBH, priority 2022, published 2025).
Like-named read-outs stand apart in the source and are kept apart here.

Test: phase 1 study in patients with mild to moderate Parkinson's disease (PK, safety)
Assay type: in vivo, human
Details: human, plasma; for concentration at 24 h / Cmax / Tmax / AUC / concentration at 12 h / half-life at 7 days / Tmax at 7 days / half-life / AUC(0-t) / AUC(0-inf): oral; for Cmax: read-out: Cmax (geometric mean); for AUC: read-out: AUC(0-tau) (geometric mean); for AUC(0-inf): read-out: AUC(0-inf) (geometric mean)
Excerpt: Study Title: A Single Part Study to Assess the Safety, Tolerability, Pharmacokinetics and Pharmacodynamics of Multiple Ascending Oral Doses of anle138b, and to Characterize the Effect of Food on the Pharmacokinetics of anle138b in Patients with Mild to Moderate Parkinson's Disease.
This was a two-center, double-blind, randomised, placebo-controlled study that enrolled twenty two (22) participants in cohorts (i.e. regimens) A-C. All completed the study per protocol. After completion of Cohorts A to C it was decided to add Cohorts D and E of 24 subjects. Cohort D expanded sample size of previous dosing regiments 150 mg and 300 mg QD and Cohort E administration of anle138b 300 mg for 28 days, under non fasted conditions.
Drug product used is described in section 1.3, supra, placebo was vehicle in capsule. Subjects were between 50 and 80 years of age with a diagnosis of idiopathic PD as defined by the Movement Disorders Society criteria (either fulfilling criteria for “Clinically Established PD” or for “Clinically Probable PD”). They had to present with Hoehn and Yahr stage I-III (i.e. able to walk unaided), and stable medication for PD for 1 month prior to inclusion and anticipated over the study period. The subjects were randomly assigned to receive one of three drug regimens, A, B or C, as follows: • Regimen A—150 mg (5×30 mg) anle138b oral capsules or matching placebo QD, for 7 consecutive days in the fasted state, followed by a single administration of 150 mg anle138b oral capsule or matching placebo on Day 9 in the fed state, • Regimen B—300 mg (10×30 mg) anle138b oral capsules or matching placebo QD, for 7 consecutive days in the fasted state, followed by a single administration of 300 mg anle138b oral capsule (10×30 mg capsules) or matching placebo on Day 9 in the fed state, • Regimen C—150 mg (5×30 mg) anle138b oral capsules or matching placebo BID (total 300 mg daily), […]
Primary endpoints provided safety and tolerability information for the test product by assessing: AEs, vital signs, ECGs, physical examinations and laboratory safety tests, and to provide additional safety and tolerability information for the test product taken also in the fed state by assessing: AEs, vital signs, ECGs, physical examinations and laboratory safety tests.
Secondary endpoints provided PK information for the test product in PD patients by assessing plasma exposure under fast and fed conditions.

Compound `Brc1cccc(-c2cc(-c3ccc4c(c3)OCO4)n[nH]2)c1` [anle138b, 3-(1,3-benzodioxol-5-yl)-5-(3-bromophenyl)-1H-pyrazole] has a concentration at 24 h (150 mg, PD patients, Regimen A 150 mg single dose on Day 9, fed state, read-out: C24 (geometric mean)) of 1.87 ng/mL, a Cmax (150 mg, PD patients, Regimen A 150 mg single dose on Day 9, fed state) of 167 ng/mL and a Tmax (150 mg, PD patients, Regimen A 150 mg single dose on Day 9, fed state, read-out: Tmax (median)) of 3 h. The Tmax (150 mg, PD patients, Regimen A 150 mg single dose on Day 9, fed state, read-out: Tmax (range)) was 1.5 to 4 h, the Cmax (150 mg, PD patients, Regimen C 150 mg BID, fast, Day 1) was ~546 ng/mL and the Tmax (150 mg, PD patients, Regimen C 150 mg BID, fast, Day 1, read-out: Tmax (median)) was 1 h. It also gave a Tmax (150 mg, PD patients, Regimen C 150 mg BID, fast, Day 1, read-out: Tmax (range)) of 1 to 2 h, an AUC (150 mg, PD patients, Regimen C 150 mg BID, fast, Day 1, tau 12 h) of ~993 ng·h/mL and a concentration at 12 h (150 mg, PD patients, Regimen C 150 mg BID, fast, Day 1, tau 12 h, read-out: Ctau (geometric mean)) of 7.41 ng/mL. For the same compound, the Cmax (150 mg, PD patients, Regimen C 150 mg BID, fast, Day 7) was ~182 ng/mL, the half-life at 7 days (150 mg, PD patients, Regimen C 150 mg BID, fast, Day 7, read-out: T1/2 (geometric mean) (converted)) was 14.1 h and the Tmax at 7 days (150 mg, PD patients, Regimen C 150 mg BID, fast, Day 7, read-out: Tmax (median)) was 1 h. It also gave a Tmax at 7 days (150 mg, PD patients, Regimen C 150 mg BID, fast, Day 7, read-out: Tmax (range)) of 1 to 1.5 h, an AUC (150 mg, PD patients, Regimen C 150 mg BID, fast, Day 7, tau 12 h) of ~297 ng·h/mL and a concentration at 12 h (150 mg, PD patients, Regimen C 150 mg BID, fast, Day 7, tau 12 h, read-out: Ctau (geometric mean)) of 4.05 ng/mL. The half-life (150 mg, patient, 150 mg once daily for 7 consecutive days, fed conditions as printed, day 7, read-out: T½ of anle138b (clause 14) (converted)) was ~11.7 h, the Cmax (300 mg, PD patients, Regimen B 300 mg QD (row prints fed, title fasted state), Day 1) was ~933 ng/mL and the Tmax (300 mg, PD patients, Regimen B 300 mg QD (row prints fed, title fasted state), Day 1, read-out: Tmax (median)) was 1.5 h. It also gave a Tmax (300 mg, PD patients, Regimen B 300 mg QD (row prints fed, title fasted state), Day 1, read-out: Tmax (range)) of 1 to 4 h, an AUC (300 mg, PD patients, Regimen B 300 mg QD (row prints fed, title fasted state), Day 1, tau 24 h) of ~2500 ng·h/mL and a concentration at 24 h (300 mg, PD patients, Regimen B 300 mg QD (row prints fed, title fasted state), Day 1, tau 24 h, read-out: Ctau (geometric mean)) of 6.81 ng/mL. It also gave a Cmax (300 mg, PD patients, Regimen B 300 mg QD (row prints fed, title fasted state), Day 7) of ~365 ng/mL, a Tmax at 7 days (300 mg, PD patients, Regimen B 300 mg QD (row prints fed, title fasted state), Day 7, read-out: Tmax (median)) of 1.5 h and a Tmax at 7 days (300 mg, PD patients, Regimen B 300 mg QD (row prints fed, title fasted state), Day 7, read-out: Tmax (range)) of 1 to 2 h. The AUC (300 mg, PD patients, Regimen B 300 mg QD (row prints fed, title fasted state), Day 7, tau 24 h) was ~722 ng·h/mL, the concentration at 24 h (300 mg, PD patients, Regimen B 300 mg QD (row prints fed, title fasted state), Day 7, tau 24 h, read-out: Ctau (geometric mean)) was 3.19 ng/mL and the half-life at 7 days (300 mg, PD patients, Regimen B 300 mg QD, Day 7, read-out: T1/2 (geometric mean) (converted)) was 11.8 h. It also gave a half-life (300 mg, PD patients, Regimen B 300 mg single dose on Day 9, fed state, n = 4, read-out: T1/2 (geometric mean) (converted)) of 13 h, an AUC(0-t) (300 mg, PD patients, Regimen B 300 mg single dose on Day 9, fed state, read-out: AUC(0-24) (geometric mean)) of 795 ng·h/mL and an AUC(0-t) (300 mg, PD patients, Regimen B 300 mg single dose on Day 9, fed state, read-out: AUC(0-last) (geometric mean)) of 831 ng·h/mL. The concentration at 24 h (300 mg, PD patients, Regimen B 300 mg single dose on Day 9, fed state, read-out: C24 (geometric mean)) was 2.88 ng/mL, the Cmax (300 mg, PD patients, Regimen B 300 mg single dose on Day 9, fed state) was 231 ng/mL and the Tmax (300 mg, PD patients, Regimen B 300 mg single dose on Day 9, fed state, read-out: Tmax (median)) was 3 h. It also gave a Tmax (300 mg, PD patients, Regimen B 300 mg single dose on Day 9, fed state, read-out: Tmax (range)) of 3 to 4 h, an AUC(0-inf) (PD patients, Regimen A 150 mg single dose on Day 9, fed state, n = 3) of 599 ng·h/mL and an AUC(0-inf) (PD patients, Regimen B 300 mg single dose on Day 9, fed state, n = 4) of 826 ng·h/mL. It also gave a concentration at 3 h (po, 300 mg, PD patients, multiple QD oral doses of 300 mg, fasted, 3 h post-dose on Day 5, read-out: plasma anle138b concentration (geometric mean)) of 133 ng/mL.
